Source: patent US10426757B2, “Compositions and methods for promoting intestinal stem cell and/or non-stem progenitor cell function” (Whitehead Institute for Biomedical Research, priority 2014, dated 2019)
Entries after “also recorded” stand apart in the source; their conditions may differ.

Legend:
[1] = tested on: Apc-null Lgr5-GFP^hi ISCs and Lgr5-GFP^low progenitors; test: In vitro adenomatous organoid formation by Apc-null ISCs and progenitors; assay type: cell-based, mouse
Description: To test this possibility, the present inventors generated Apc^loxp/loxp; Lgr5-EGFP-IRES-CreERT2 mice to assess whether pharmacological PPAR-δ activation modifies the tumorigenic capacity of the Lgr5-GFP^low progenitors. Injection with tamoxifen leads to Apc-loss in the Lgr5-GFP^hi ISCs, which in turn generate Apc-null Lgr5-GFP^low progenitors. Four days after tamoxifen administration, we flow sorted Apc-null Lgr5-GFP^hi ISCs and Lgr5-GFP^low progenitors from vehicle and PPAR-δ agonist treated mice to assess the tumor-forming potential of these populations using separate assays (FIG. 7B): first, we examined their ability to give rise to adenomatous organoids in culture; and second, we interrogated the ability of 10,000 freshly sorted stem and progenitor cells to initiate adenomatous lesions in syngeneic recipient colons.
(§1) Isolated ISCs or progenitor cells were centrifuged for 5 minutes at 250 g, re-suspended in the appropriate volume of crypt culture medium (500-1,000 cells μl^−1), then seeded onto 25-30 μl Matrigel™ (Corning 356231 growth factor reduced) containing 1 μM jagged (Ana-Spec) in a flat bottom 48-well plate (Corning 3548). Alternatively, ISCs and Paneth cells were mixed after sorting in a 1:1 ratio, centrifuged, and then seeded onto Matrigel™. The Matrigel™ and cells were allowed to solidify before adding 300 μl of crypt culture medium. The crypt media was changed every second or third day. Organoid bodies were quantified on days 3, 7 and 10 of culture, unless otherwise specified. With respect to the study results presented in FIGS. 14-16, organoid bodies were quantified on day 3-4. In secondary experiments, individual primary organoids were mechanically dissociated and re-plated, or organoids were dissociated for 10 minutes in TrypLE Express at 32° C., re-suspended with SMEM (Life Technologies), centrifuged and re-suspended in cold SMEM with viability dye 7-AAD. Live cells were sorted and seeded onto Matrigel™ as previously described.

[2] = tested on: Lgr5-GFP^hi ISCs; test: Organoid formation by sorted Lgr5-GFP^hi ISCs with or without Paneth cells; assay type: cell-based, mouse; conditions: ISCs from GW501516-treated mice, no Paneth cells, vs vehicle; listed as GW501515
Procedure: as §1

[3] = tested on: β-catenin target genes; test: Single cell qPCR of β-catenin target genes; assay type: in vivo, mouse; conditions: ISCs and progenitors from GW501516-treated mice
Procedure: For one-tube single-cell sequence-specific pre-amplification, individual primer sets of β-catenin target genes (total of 96) were pooled to 0.1 mM final concentration for each primer. Single cells were directly sorted into 96 well plates containing 5 ul RT-PCR master mix (2.5 ul CellsDirect reaction mix, Invitrogen; 0.5 ul primer pool; 0.1 ul RT/Taq enzyme, Invitrogen; 1.9 ul nuclease free water) in each well. Immediately after, plates were placed on PCR machine for pre-amplification. Sequence specific pre-amplification PCR protocol was as following: 1) 60 minutes at 50° C. for cell lyses and sequence specific reverse transcription, 2) 3 minutes at 95° C. for reverse transcriptase inactivation and Taq polymerase activation. Then, cDNA was amplified by 20 cycles of 15 seconds at 95° C. for initial denaturation, […] at 60° C. for annealing and elongation. After pre-amplification, samples were diluted 1:5 prior to high throughput microfluidic real time PCR analysis using Fluidgm platform. […] Threshold crossing (Ct) values were calculated using the BioMark Real-Time PCR Analysis software (Fluidgm). […] Fold-changes were calculated as the difference of median of log2 expression levels for the two cell populations. […]

[4] = tested on: PPAR-δ target genes; test: PPAR-δ target gene and protein expression in flow sorted ISCs and progenitors (qRT-PCR, immunoblot, RNA-seq); assay type: in vivo, mouse; conditions: GW501516 for 4 weeks, protein level
Description: Antibodies: rabbit polyclonal anti-PPAR-δ (1:100, Thermo PA1-823A), rabbit polyclonal anti-Cpt1a (1:250, ProteinTech 15184-1-AP), rabbit polyclonal anti-HMGCS2 (1:500, Sigma AV41562), rabbit monoclonal anti-FABP1 (1:1000, Abcam ab129203), rabbit polyclonal anti-γ-tubulin (1:1000, Sigma T5192). Lgr5-GFP^hi ISCs or GFP^low progenitors were sorted directly into sample buffer and boiled for five minutes. Samples were resolved by SDS-PAGE and analyzed by immunoblotting with goat anti-rabbit IgG-HRP secondary antibodies (1:10,000, Santa Cruz Biotechnology sc-2054) and Western Lightning Plus-ECL detection kit (Perkin Elmer, NEL 104001EA).
Cells were sorted into Tri Reagent (Life Technologies) and total RNA was isolated according to the manufacturer's instructions with following modification: the aqueous phase containing total RNA was purified using RNeasy plus kit (Qiagen). RNA was converted to eDNA with cDNA synthesis kit (Bio-Rad). qRT-PCR was performed with SYBR green master mix (Bio-Rad) on Bio-Rad iCycler RT-PCR detection system. Primers used are listed on Table 4 below.
RNA Isolation. […] From the total RNA, poly(A)^+ RNA was selected using Oligo(dT)25-Dynabeads (Life technologies) according to the manufacturer's protocol.

With `Cc1cc(SCc2sc(-c3ccc(C(F)(F)F)cc3)nc2C)ccc1OCC(=O)O` [GW501516, 2-[2-methyl-4-[[4-methyl-2-[4-(trifluoromethyl)phenyl]-1,3-thiazol-5-yl]methylsulfanyl]phenoxy]acetic acid] the “in vitro adenoma-initiating potential of Apc-null Lgr5-GFP^low progenitors” value ([1]; GW501516-treated mice, EN media, vehicle 0.04±0.05) was 0.18±0.07, the “in vitro adenomatous organoid-forming potential of Apc-null Lgr5-GFP^hi ISCs” value ([1]; GW501516-treated vs vehicle) was “not altered” and the “increase of in vitro adenomatous organoid forming potential of Apc-null Lgr5-GFP^low progenitors” value ([1]; GW501516-treated vs vehicle, EN media) was “four-fold”. The “in vitro adenomatous organoid-forming potential of Apc-null Lgr5-GFP^hi ISCs” value ([1]; GW501516-treated vs vehicle, listed as PPAR-δ agonist) was “as clonogenic as those from vehicle controls”, the “Paneth cell-independent organoid-initiating capacity of Lgr5-GFP^hi ISCs” value [2] was “sufficient to enhance” and the “transcription of β-catenin target genes (Bmp4, Jag1, Jag2, Edn3)” value [3] was “induction”. For the same compound, the “PPAR-δ target proteins in ISCs and progenitors” value [4] was “strong induction; also recorded: upregulated”.
